Measurements taken from US11771709B2, “ALK protein degradation agent and anti-tumor application thereof” (ShanghaiTech University, priority 2017, dated 2023).
Like-named read-outs stand apart in the source and are kept apart here.

Columns and labels:
[1] = target: T1, Ba/F3 (EML4-ALK/L1196M) (Homo sapiens, UniProt Q9UM73, L1196M, cells depend on it); assay: Growth inhibition IC50 in Ba/F3 cells expressing EML4-ALK L1196M; type: cell-based
T1 construct: Q9HC35 (Echinoderm microtubule-associated protein-like 4)
Experimental: (§1) Cells were seeded at specific density in 96 well plates one day before treatment. […] Viable cells were measured via CCK8 reagent and IC50s were calculated via Prism Graphad. Experiments were repeated at least three times.

[2] = test system: PC9 (EGFR, exon 19 del) cells; assay: Growth inhibition IC50 in EGFR mutant lung adenocarcinoma PC9 cells; type: cell-based; details: Homo sapiens
Experimental: (§2) SR (NPM-ALK) and NCI-H2228 (EML4-ALK, V3) cells were purchased from ATCC. […] All Cells were cultured in RPMI1640 medium with 10% FBS and Penicillin-Streptomycin in 37° C. incubator with 5% CO2.
as §1

[3] = target: T2, Ba/F3 (EML4-ALK/C1156Y) (Homo sapiens, UniProt Q9UM73, C1156Y, cells depend on it); assay: Growth inhibition IC50 in Ba/F3 cells expressing EML4-ALK C1156Y; type: cell-based
T2 construct: Q9HC35 (Echinoderm microtubule-associated protein-like 4)
Experimental: as §1

[4] = test system: SW48 cell line (EGFR G719S); assay: Growth inhibition IC50 in EGFR G719S colorectal cancer cell line SW48; type: cell-based; details: Homo sapiens, CTG, n = 2, read-out: Half Inhibitory Concentration (IC50) Mean
Experimental: as §1

[5] = test system: MOLM13 cells (FLT3-ITD); assay: Growth inhibition IC50 in FLT3-ITD AML cell line MOLM13; type: cell-based; details: Homo sapiens
Experimental: as §1

[6] = target: T3, ALK protein in SR (NPM-ALK) cells (Homo sapiens, UniProt Q9UM73); assay: Western blot of ALK protein level (degradation, DC50), ALK phosphorylation and downstream signaling in SR cells; type: cell-based; details: for ALK protein degradation: 16 hours, up to 500 nM; for DC50: ALK protein degradation in SR cells
T3 construct: NPM (nucleophosmin, NPM1, P06748) fusion partner; host or cells: SR (ALCL) cells; the other entry of the earlier key: NPM1 (P06748, Nucleophosmin)

[7] = test system: U118MG cells (FIG-ROS1 gene fusion); assay: Growth inhibition IC50 in ROS1 mutant glioblastoma cell line U118MG (72 hours); type: cell-based; details: Homo sapiens, U-118-MG
[8] = test system: ALK positive non-small cell lung cancer; details: patients; cited from earlier work
[9] = test system: PC9Brc1 (EGFR, exon 19 del+T790M) cells; assay: Growth inhibition IC50 in EGFR mutant lung cancer PC9Brc1 cells; type: cell-based; details: CTB, n ≥ 3, read-out: Half Inhibitory Concentration (IC50) Mean
Experimental: as §2, §1

[10] = test system: NCI-H2228 (EML4-ALK, V3) cells; assay: Growth inhibition IC50 in lung adenocarcinoma H2228 cells (WST); type: cell-based; details: Homo sapiens, WST (Table 3)
From the text: Experiments were repeated at least three times.
Besides above, we also tested the dosage-dependent effects on the growth inhibition in H2228 cells. […] (Table 3).

[11] = test system: SR (NPM-ALK) cells; assay: Growth inhibition IC50 in ALCL SR cells (CCK8/WST, 72 hours); type: cell-based; details: SR cells, WST, Brigatinib-based PROTAD molecules (Table 3)
Experimental: as §2, §1

[12] = target: T4, ALK protein in H3122 (EML4-ALK) cells (Homo sapiens, UniProt Q9UM73); assay: Western blot of ALK protein level (degradation, DC50), ALK phosphorylation and downstream signaling in H3122 cells; type: cell-based; details: ALK protein degradation in H3122 cells
T4 construct: EML4 (Echinoderm microtubule-associated protein-like 4, Q9HC35) fusion partner, variant 1; host or cells: NCI-H3122 lung adenocarcinoma cells; the other entry of the earlier key: EML4 (Q9HC35, Echinoderm microtubule-associated protein-like 4)

[13] = Pharmacokinetics (PK) study in SD rat (IV, IP, PO; LC-MS/MS); type: in vivo; details: Sprague-Dawley, serum; for clearance: read-out: clearance rate, mean value
Experimental: SD rat were used to study the PK of ALK PROTAD compounds. ALK PROTAD compounds SIAIS164008, SIAIS164018, SIAIS164023 and SIAIS151118 were administrated into SD rat via three different routes: IV (Intravenous Injection), IP (Intraperitoneal Injection) and PO ([…]). Blood samples at different sampling time points up to 24 hours post dosing were collected from each animal and analyzed with LC-MS/MS to calculate the PK for each chemical.

[14] = target: T5, Ba/F3 (EML4-ALK/WT) (Homo sapiens, UniProt Q9UM73); assay: Growth inhibition IC50 in Ba/F3 cells expressing EML4-ALK wild type; type: cell-based
T5 construct: Q9HC35 (Echinoderm microtubule-associated protein-like 4)
Experimental: as §1

[15] = test system: ALK protein in H2228 (EML4-ALK) cells; assay: Western blot of ALK protein level, ALK phosphorylation and downstream signaling in H2228 cells; type: cell-based
Experimental: Cancer cells were seeded in 1 ml RPMI1640 medium in 24-well plate at the density of 3×10^5 or 1.5×10^5 cells/ml. The next day cells were treated with different concentration of drugs for 16 hours. Then cells were washed twice with PBS and lyzed in RIPA lysis buffer with Halt Proteinase and Phosphotase inhibitor. Equal amount of proteins were loaded to run SDS-PAGE gels after denature. The gels were blotted to PVDF membrane. After incubating with first and secondary antibodies, the images were developed using SuperSignal West Pico Chemiluminescent Substrate.
The effect of Brigtinib based PROTAD molecules on the ALK protein total level were studied by western blot in ALCL SR (NPM-ALK) cell line and lung adenocarcinoma cell line H2228 and H3122 (EML4-ALK).
The effects of compounds SIAIS164008 and SIAIS164018 of the present invention on the activation of ALK mediated signaling pathways were also studied in SR cells and H2228 cells. […] The overall effect of compound of SIAIS164018 was better than that of SIAIS164008.

[16] = target: T6, ALK protein in SR cells (Homo sapiens, UniProt Q9UM73); assay: Block of ALK degradation by proteosome inhibitors MG132 and MLN4924 in SR cells; type: cell-based
T6 construct: NPM (nucleophosmin, NPM1, P06748) fusion partner; host or cells: SR (ALCL) cells; the other entry of the earlier key: NPM1 (P06748, Nucleophosmin)
From the text: To further validate the degradation effect act through proteosome mediated pathway, we also treated cells with two different proteosome inhibitors MG132 and MLN4924 to block protein degradation (FIG. 16).

[17] = MOLM-13, MOLM13 cells, n = 2, reagent CTG, read-out: Half Inhibitory Concentration (IC50) Mean
[18] = U118MG cells, 72 hours, n = 2, reagent CTG, read-out: Half Inhibitory Concentration (IC50) Mean
[19] = IP, 2 mg/kg, read-out: serum half-life (converted)
[20] = IP, 2 mg/kg, read-out: time to maximal serum peak level (Tmax)
[21] = IV, single dose 2 mg/kg, read-out: serum clearance half-life (converted)
[22] = PO, 10 mg/kg, read-out: serum half-life (converted)
[23] = PC-9, PC9 cells, CTB, n ≥ 3, read-out: Half Inhibitory Concentration (IC50) Mean

Row | Structure (SMILES) | GI50 [1] [nM] | GI50 [3] [nM] | IC50 [4] [nM] | ALK protein degradation ([6]; SR cells, western blot) | IC50 [9] [nM] | IC50 [10] [nM] | DC50 [12] [nM] | IC50 [5, 17] [nM] | DC50 [6] [nM] | IC50 [7, 18] [nM] | bioavailability ([13]; IP, 2 mg/kg) [%] | half-life [13, 19] [h] | Tmax [13, 20] [h] | clearance ([13]; IV, single dose 2 mg/kg) [mL/min/kg] | half-life [13, 21] [h] | bioavailability ([13]; PO, 10 mg/kg) [%] | Tmax ([13]; PO, 10 mg/kg, read-out: Tmax) [h] | half-life [13, 22] [h] | GI50 [14] [nM] | IC50 ([11]; 72 h) [nM] | further results
1 | COc1cc(N2CCC(N3CCN(C)CC3)CC2)ccc1Nc1ncc(Cl)c(Nc2ccccc2P(C)(C)=O)n1 [Brigatinib, reference compound] | 35.9 | 36.8 | 2720 | did not degrade ALK proteins | 246 | 45.2 | – | – | – | – | – | – | – | – | – | – | – | – | – | – | IC50 ([2]; PC-9, read-out: Half Inhibitory Concentration (IC50) Mean): 102 nM; IC50 ([5]; MOLM-13): ~152 nM; IC50 ([5]; MOLM-13, read-out: Half Inhibitory Concentration (IC50) Mean): 152 nM; ALK protein levels, time- and dose-dependence ([6]; SR cells, 30 nM to 300 uM, 4-24 hours): did not affect ALK protein levels; IC50 ([7]; 72 h): ~6800 nM; IC50 ([7]; 72 h, read-out: Half Inhibitory Concentration (IC50) Mean): 6800 nM; disease control rate [8]: about 86%; response rate [8]: 55%; IC50 ([11]; 72 hours): 2.8 nM
2 | COc1cc(N2CCC(NC(=O)CCCNc3cccc4c3C(=O)N(C3CCC(=O)NC3=O)C4=O)CC2)ccc1Nc1ncc(Cl)c(Nc2ccccc2P(C)(C)=O)n1 (centres unmarked) [SIAIS151118, N-(1-(4-((5-chloro-4-((2-(dimethylphosphoryl)phenyl)amino)pyrimidin-2-yl)amino)-3-methoxyphenyl)piperidin-4-yl)-4-((2-(2,6-dioxopiperidin-3-yl)-1,3-dioxoisoindolin-4-yl)amino)butanamide] | 146 | 129 | 1920 | – | – | 346 | 1 to 50 | 101 | 1 to 10 | 4260 | 225 | 3.27 | ~1.67 | ~6.35 | ~4.73 | 36 | 3.33 | 4.66 | 92 | 0.9 ± 0.2 | IC50 ([5]; MOLM-13, MOLM13 cells, read-out: IC50): 101 nM
3 | COc1cc(N2CCC(N3CCN(C(=O)CCOCCOCCNc4cccc5c4C(=O)N(C4CCC(=O)NC4=O)C5=O)CC3)CC2)ccc1Nc1ncc(Cl)c(Nc2ccccc2P(C)(C)=O)n1 (centres unmarked) [SIAIS164008, 4-((2-(2-(3-(4-(1-(4-((5-chloro-4-((2-(dimethylphosphoryl)phenyl)amino)pyrimidin-2-yl)amino)-3-methoxyphenyl)piperidin-4-yl)piperazin-1-yl)-3-oxopropoxy)ethoxy)ethyl)amino)-2-(2,6-dioxopiperidin-3-yl)isoindoline-1,3-dione] | 376 | 243 | 15200 | effectively degrade ALK proteins at nano mole concentration | 1830 | 74 | 10 to 50 | 392 | 1 to 10 | 3520 | 93 | 1.54 | ~0.42 | ~414 | ~0.85 | 14.9 | 2.75 | 3.98 | 115 | 3.6 ± 2.1 | IC50 [2, 23]: 265 nM; phosphorylation of ALK protein and activation of PI3K/AKT pathway [15]: inhibited; concentration inhibiting the phosphorylation of ALK proteins ([6]; SR cells, western blot): 0.1 nM; downstream signaling pathway (PI3K/AKT, MEK/ERK and STAT3) ([6]; SR cells, western blot): significantly inhibited; IC50 ([7]; U118MG cells, 72 hours, read-out: IC50): ~3520 nM
4 | COc1cc(N2CCC(N3CCN(C(=O)CCCCCCNc4cccc5c4C(=O)N(C4CCC(=O)NC4=O)C5=O)CC3)CC2)ccc1Nc1ncc(Cl)c(Nc2ccccc2P(C)(C)=O)n1 (centres unmarked) [SIAIS164023, 4-((7-(4-(1-(4-((5-chloro-4-((2-(dimethylphosphoryl)phenyl)amino)pyrimidin-2-yl)amino)-3-methoxyphenyl)piperidin-4-yl)piperazin-1-yl)-7-oxoheptyl)amino)-2-(2,6-dioxopiperidin-3-yl)isoindoline-1,3-dione] | 75.8 | 47.5 | – | – | 870 | 15.5 | 1 to 10 | – | 0.5 to 10 | – | 122 | 1.62 | ~2 | ~88.2 | ~7.71 | 34.4 | 3.33 | 2.13 | 33.6 | 4.8 ± 2.7 | IC50 [2, 23]: 379 nM
5 | COc1cc(N2CCC(N3CCN(C(=O)CNc4cccc5c4C(=O)N(C4CCC(=O)N(C)C4=O)C5=O)CC3)CC2)ccc1Nc1ncc(Cl)c(Nc2ccccc2P(C)(C)=O)n1 (centres unmarked) [SIAIS1210003, 4-((2-(4-(1-(4-((5-chloro-4-((2-(dimethylphosphoryl)phenyl)amino)pyrimidin-2-yl)amino)-3-methoxyphenyl)piperidin-4-yl)piperazin-1-yl)-2-oxoethyl)amino)-2-(1-methyl-2,6-dioxopiperidin-3-yl)isoindoline-1,3-dione] | – | – | – | – | – | – | – | – | – | – | – | – | – | – | – | – | – | – | – | – | reduction of ALK protein level and its block by MG132 and MLN4924 [16]: no such effect
